Source: PMC3997483, “Aminostyrylbenzofuran Directly Reduces Oligomeric Amyloid-β and Reverses Cognitive Deficits in Alzheimer Transgenic Mice” (PLoS ONE, 2014)
Where two headings read alike, the source gives them in different places.

Legend:
[1] = Pharmacokinetics IV/PO in mice; format: in vivo, ICR mice; settings: for AUC(0-t): read-out: AUC0–24h
Description: Pharmacokinetics profile of KMS88009 was obtained using ICR mice, SD rats, beagle dogs and cynomolgus monkeys. Animals were fasted overnight before KMS88009 administration. Mice were divided into 2 groups to receive KMS88009 as a single dose of 2.1 mg/kg intravenous (IV) bolus or 10 mg/kg orally (PO) by gavage. Additionally, KMS88009 was administered orally to estimate the BBB penetration in mice (10, 30 and 100 mg/kg). […] Dog received KMS88009 either as an IV bolus (1 mg/kg) via the great saphenous vein or by oral gavage (4 mg/kg). KMS88009 was administrated to monkeys as an IV bolus (1 mg/kg) via the femoral vein or by oral gavage (4 mg/kg). Vehicle for IV and PO administration was DMSO/tween-20/saline (3.3∶19.8∶[…]). […]. Brain samples were weighed and Daunce-homogenized in 10-fold volume of ice-chilled 4% bovine serum albumin (BSA) solution at room temperature. Plasma and brain homogenates were kept frozen at −70°C until analysis. The levels of KMS88009 were determined by the LC-MS/MS analysis. Pharmacokinetic parameters, time to the maximum concentration (Tmax), maximum concentration (Cmax), elimination half-life (T1/2), volume of distribution (Vd), clearance (Cl) and mean residual time (MRT), of KMS88009 were calculated based on plasma concentration-time data by a non-compartmental method using WinNonlin Version 5.2 (Pharsight, USA). Area under the curve from 0 to 24 hr (AUC0-24h) and area under the curve from 0 to infinity (AUCINF) were obtained by linear and log linear trapezoidal summations.

[2] = Metabolic stability in liver microsomes; format: in vitro ADME; settings: rat liver microsomes
[3] = Plasma and brain pharmacokinetics (BBB penetration) after PO in rats; format: in vivo; settings: SD, rat, rats PO 2.5 mg/kg
Description: Pharmacokinetics profile of KMS88009 was obtained using ICR mice, SD rats, beagle dogs and cynomolgus monkeys. Animals were fasted overnight before KMS88009 administration. Mice were divided into 2 groups to receive KMS88009 as a single dose of 2.1 mg/kg intravenous (IV) bolus or 10 mg/kg orally (PO) by gavage. Additionally, KMS88009 was administered orally to estimate the BBB penetration in mice (10, 30 and 100 mg/kg). […] Dog received KMS88009 either as an IV bolus (1 mg/kg) via the great saphenous vein or by oral gavage (4 mg/kg). KMS88009 was administrated to monkeys as an IV bolus (1 mg/kg) via the femoral vein or by oral gavage (4 mg/kg). Vehicle for IV and PO administration was DMSO/tween-20/saline (3.3∶[…]∶79.6). All animals (n = 3 per group) were sacrificed and concentration of KMS88009 in plasma and brain were measured at 1/12, 1/4, 1/2, 1, 2, 4, 10 and 24 hr after IV administration and at 1/2, 1, 2, 4, 10 and 24 hr after PO administration. Brain samples were weighed and Daunce-homogenized in 10-fold volume of ice-chilled 4% bovine serum albumin (BSA) solution at room temperature. Plasma and brain homogenates were kept frozen at −70°C until analysis. The levels of KMS88009 were determined by the LC-MS/MS analysis. Pharmacokinetic parameters, time to the maximum concentration (Tmax), maximum concentration (Cmax), elimination half-life (T1/2), volume of distribution (Vd), clearance (Cl) and mean residual time (MRT), of KMS88009 were calculated based on plasma concentration-time data by a non-compartmental method using WinNonlin Version 5.2 (Pharsight, USA). Area under the curve from 0 to 24 hr (AUC0-24h) and area under the curve from 0 to infinity (AUCINF) were obtained by linear and log linear trapezoidal summations.

[4] = Metabolic stability in liver microsomes; format: in vitro ADME; settings: mouse liver microsomes
[5] = ICR, plasma, mouse IV 2.1 mg/kg
[6] = ICR, mouse IV 2.1 mg/kg, plasma
[7] = read-out: Remaining % of parent molecule at 60 min.

Structure (SMILES): COc1ccc2cc(C=Cc3ccc(N(C)C)cc3)oc2c1 [KMS88009, 6-methoxy-2-(4-dimethylaminostyryl) benzofuran]
- MRT last [1, 5]: 2.9 h
- Vd [1, 5]: 32.1 L/kg
- clearance [1, 5]: 3.8 L/h/kg
- half-life [1, 5]: 5.9 h
- MRT last ([1]; ICR, plasma, mouse PO 10 mg/kg): 5.5 h
- Tmax ([1]; ICR, plasma, mouse PO 10 mg/kg): 1 h
- half-life ([1]; ICR, plasma, mouse PO 10 mg/kg): 4.6 h
- AUC(0-inf) [1, 6]: 1.33 µg·h/mL
- AUC(0-t) [1, 6]: 1.3 µg·h/mL
- AUC(0-inf) ([1]; ICR, mouse PO 10 mg/kg, plasma): 6.31 µg·h/mL
- Cmax ([1]; ICR, mouse PO 10 mg/kg, plasma): 1.06 µg/mL
- AUC(0-t) ([1]; ICR, mouse PO 10 mg/kg, plasma): 6.16 µg·h/mL
- BA ([1]; mouse PO 10 mg/kg vs IV […]): 99.6%
- half-life at 5 µM [2]: 0.9733 ± 0.00667 h
- remaining at 1 h, 5 µM [2, 7]: 61.2 ± 0.2%
- Cmax ([3]; brain): 1310 ng/g
- Tmax ([3]; plasma, same data as Table 3): 1.7 h
- AUC(0-t) ([3]; plasma, same data as Table 3, read-out: AUC0–24h): 0.908 µg·h/mL
- half-life at 5 µM [4]: 1.088 ± 0.01 h
- remaining at 1 h, 5 µM [4, 7]: 52.4 ± 0.3%
